Experimental data: US9416115B2, “Fused heterocyclic compounds as ion channel modulators” (Gilead Sciences, Inc., priority 2013, dated 2016)

How the values were obtained:
hNav1.1 (SCN1A) = hNav1.1 (SCN1A) (Homo sapiens, UniProt P35498); experiment: Use-dependent inhibition of the CNS Nav1.1 sodium channel; type: cell-based; conditions: use-dependent block, 25 Hz, pulse 20, read-out: Nav1.1 UDB 25 Hz 10 uM
In short: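 HEK-293 cells stably expressing WT hNav1.1, automated whole-cell patch clamp at 23-25 °C with CsF-based internal and NaCl external solutions, pH 7.35. Compound applied twice, 200 s equilibration; block measured at pulse 20 of a 25 Hz train (0 mV, 20 ms) from −120 mV, as mean % inhibition versus compound-free.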

hNaV1.2 (SCN2A) = target: T1, hNaV1.2 (SCN2A) (Homo sapiens, UniProt Q99250); experiment: Use-dependent inhibition of the CNS Nav1.2 sodium channel; type: cell-based; conditions: use-dependent block, 25 Hz, pulse 20, read-out: Nav1.2 UDB 25 Hz 10 uM
T1 construct: expressed in transfected cells
T1 sequence (Q99250 whole entry): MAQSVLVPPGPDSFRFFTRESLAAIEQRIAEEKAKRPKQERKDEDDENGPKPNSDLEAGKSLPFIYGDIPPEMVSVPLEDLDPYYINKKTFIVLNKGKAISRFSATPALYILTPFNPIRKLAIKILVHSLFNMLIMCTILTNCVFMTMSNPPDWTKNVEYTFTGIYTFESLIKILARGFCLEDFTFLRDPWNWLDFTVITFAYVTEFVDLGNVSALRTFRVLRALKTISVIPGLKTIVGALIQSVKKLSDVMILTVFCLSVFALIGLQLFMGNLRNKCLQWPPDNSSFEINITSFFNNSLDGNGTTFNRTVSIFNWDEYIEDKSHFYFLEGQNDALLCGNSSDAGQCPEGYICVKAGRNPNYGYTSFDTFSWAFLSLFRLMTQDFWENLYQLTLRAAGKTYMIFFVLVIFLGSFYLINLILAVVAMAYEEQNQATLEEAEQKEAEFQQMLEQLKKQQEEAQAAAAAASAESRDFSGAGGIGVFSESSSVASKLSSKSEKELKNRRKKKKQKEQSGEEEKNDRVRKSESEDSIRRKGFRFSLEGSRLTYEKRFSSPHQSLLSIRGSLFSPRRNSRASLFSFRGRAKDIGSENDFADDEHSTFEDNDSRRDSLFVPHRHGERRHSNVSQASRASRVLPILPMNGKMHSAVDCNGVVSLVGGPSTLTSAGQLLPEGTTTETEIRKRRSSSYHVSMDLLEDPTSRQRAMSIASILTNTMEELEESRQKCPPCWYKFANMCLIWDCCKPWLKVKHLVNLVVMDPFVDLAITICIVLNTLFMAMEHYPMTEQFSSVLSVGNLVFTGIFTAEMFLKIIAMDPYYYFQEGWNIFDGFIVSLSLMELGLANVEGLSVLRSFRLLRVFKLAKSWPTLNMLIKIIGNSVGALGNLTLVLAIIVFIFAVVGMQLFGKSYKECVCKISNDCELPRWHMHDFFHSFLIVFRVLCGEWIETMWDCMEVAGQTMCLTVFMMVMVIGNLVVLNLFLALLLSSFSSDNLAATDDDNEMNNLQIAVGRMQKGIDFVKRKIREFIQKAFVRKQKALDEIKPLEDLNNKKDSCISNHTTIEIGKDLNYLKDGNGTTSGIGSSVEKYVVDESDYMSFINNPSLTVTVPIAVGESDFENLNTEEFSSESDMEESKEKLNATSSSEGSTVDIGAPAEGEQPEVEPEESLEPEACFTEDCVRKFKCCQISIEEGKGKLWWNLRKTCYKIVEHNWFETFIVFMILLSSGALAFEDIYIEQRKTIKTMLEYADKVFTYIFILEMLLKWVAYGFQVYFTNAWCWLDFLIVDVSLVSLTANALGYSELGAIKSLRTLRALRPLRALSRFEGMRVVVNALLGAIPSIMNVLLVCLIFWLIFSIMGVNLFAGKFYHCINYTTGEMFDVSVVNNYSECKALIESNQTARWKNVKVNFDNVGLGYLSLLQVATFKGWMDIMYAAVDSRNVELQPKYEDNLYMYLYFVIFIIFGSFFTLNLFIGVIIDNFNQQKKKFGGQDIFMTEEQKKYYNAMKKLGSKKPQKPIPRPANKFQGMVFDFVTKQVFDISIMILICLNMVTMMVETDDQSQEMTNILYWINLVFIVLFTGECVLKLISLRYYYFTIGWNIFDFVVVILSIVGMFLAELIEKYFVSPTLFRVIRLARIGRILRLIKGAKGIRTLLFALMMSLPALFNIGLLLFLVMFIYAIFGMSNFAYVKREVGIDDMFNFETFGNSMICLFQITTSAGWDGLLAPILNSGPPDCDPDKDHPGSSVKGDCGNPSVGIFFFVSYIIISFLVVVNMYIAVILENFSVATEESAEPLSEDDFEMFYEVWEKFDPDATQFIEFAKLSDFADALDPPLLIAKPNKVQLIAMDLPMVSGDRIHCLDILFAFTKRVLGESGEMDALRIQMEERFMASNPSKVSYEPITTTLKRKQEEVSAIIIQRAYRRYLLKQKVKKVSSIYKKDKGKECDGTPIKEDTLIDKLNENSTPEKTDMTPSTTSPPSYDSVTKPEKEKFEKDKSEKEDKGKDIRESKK
T1 sequence (Q07699 19-218 partner): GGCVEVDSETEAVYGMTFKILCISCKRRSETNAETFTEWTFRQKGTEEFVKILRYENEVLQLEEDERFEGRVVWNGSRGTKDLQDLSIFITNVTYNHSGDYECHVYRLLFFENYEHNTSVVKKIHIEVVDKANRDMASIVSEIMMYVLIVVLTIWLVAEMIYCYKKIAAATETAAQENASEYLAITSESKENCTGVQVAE
T1 sequence (O60939 30-215 partner): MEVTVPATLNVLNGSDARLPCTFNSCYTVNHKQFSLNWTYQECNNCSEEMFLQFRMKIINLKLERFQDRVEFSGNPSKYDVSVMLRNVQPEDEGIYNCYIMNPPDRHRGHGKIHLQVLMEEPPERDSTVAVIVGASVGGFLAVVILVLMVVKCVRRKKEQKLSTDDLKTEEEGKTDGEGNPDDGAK
In short: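 Use-dependent block of human Nav1.2 was measured by automated whole-cell patch clamp (QPatch) in HEK-293 cells stably expressing hNaV1.2 with SCN1B and SCN2B. From a holding potential of −120 mV, a train of 20 pulses to 0 mV (20 ms, 25 Hz) was applied. Peak current at pulse 20 was normalized to the first pulse, and percent inhibition was calculated relative to compound-free recordings.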

Compound	inhibition at 10 µM (hNav1.1 (SCN1A)) [%]	inhibition at 10 µM (hNaV1.2 (SCN2A)) [%]
Fc1cc(-c2ccc(OC(F)(F)F)cc2)cc2c(OCc3ncccn3)noc12 [Example 17, 7-fluoro-3-(pyrimidin-2-ylmethoxy)-5-(4-(trifluoromethoxy)phenyl)benzo[d]isoxazole]	5.9	< 5
O=C1CCCN1CCOc1noc2c(F)cc(-c3ccc(OC(F)(F)F)cc3)cc12 [Example 80, 1-(2-((7-fluoro-5-(4-(trifluoromethoxy)phenyl)benzo[d]isoxazol-3-yl)oxy)ethyl)pyrrolidin-2-one]	19.8	17.5
